Data published in patent US7605168B2 (Plexxikon, Inc., priority 2004, dated 2009).

What was measured:
[1] = target: T1, PDE4B: catalytic domain of human PDE4B from S152-S528 (Homo sapiens, UniProt Q07343); experiment: PDE4 IC50 determination by Scintillation Proximity Assay (SPA), PDE4B catalytic domain; format: biochemical; conditions: [3H]cAMP SPA, 30 min at 30° C.
T1 construct: The catalytic domain of human PDE4B from S152-S528; His6 (N, cleaved yes); thrombin cleavage site (N, cleaved yes); made in house; host or cells: E. coli BL21 (DE3) RIL
T1 sequence (Q07343 324-700): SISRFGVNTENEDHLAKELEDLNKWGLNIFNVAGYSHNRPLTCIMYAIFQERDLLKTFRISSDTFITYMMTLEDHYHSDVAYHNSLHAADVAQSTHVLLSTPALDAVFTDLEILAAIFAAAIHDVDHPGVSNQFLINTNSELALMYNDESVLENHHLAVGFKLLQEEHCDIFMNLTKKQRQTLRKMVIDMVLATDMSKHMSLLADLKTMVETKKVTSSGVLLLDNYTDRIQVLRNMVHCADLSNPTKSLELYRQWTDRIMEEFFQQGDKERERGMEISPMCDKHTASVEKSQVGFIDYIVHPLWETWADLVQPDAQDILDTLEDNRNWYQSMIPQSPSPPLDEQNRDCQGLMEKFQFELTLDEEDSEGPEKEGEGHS
Method in brief: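 Human PDE4B catalytic domain (80 ng/ml) hydrolysed [3H]cAMP in 50 mM Tris pH 7.5, 8.3 mM MgCl, 1.7 mM EGTA, 0.01% BSA for 30 min at 30 °C. Reaction was stopped with yttrium silicate SPA beads in 18 mM ZnSO4, and bound [3H]AMP was counted by scintillation. IC50 came from non-linear regression.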

[2] = target: T2, PDE4B2: full-length human PDE4B2 isozyme (Homo sapiens, UniProt Q07343); experiment: PDE4 IC50 determination by Scintillation Proximity Assay (SPA), full-length PDE4B2; format: biochemical; conditions: cell lysate, [3H]cAMP SPA
T2 construct: made in house; host or cells: baculovirus infected insect cells (pFastBacHT)
T2 sequence (Q07343 with tags, fused parts or gaps isoform Q07343-2): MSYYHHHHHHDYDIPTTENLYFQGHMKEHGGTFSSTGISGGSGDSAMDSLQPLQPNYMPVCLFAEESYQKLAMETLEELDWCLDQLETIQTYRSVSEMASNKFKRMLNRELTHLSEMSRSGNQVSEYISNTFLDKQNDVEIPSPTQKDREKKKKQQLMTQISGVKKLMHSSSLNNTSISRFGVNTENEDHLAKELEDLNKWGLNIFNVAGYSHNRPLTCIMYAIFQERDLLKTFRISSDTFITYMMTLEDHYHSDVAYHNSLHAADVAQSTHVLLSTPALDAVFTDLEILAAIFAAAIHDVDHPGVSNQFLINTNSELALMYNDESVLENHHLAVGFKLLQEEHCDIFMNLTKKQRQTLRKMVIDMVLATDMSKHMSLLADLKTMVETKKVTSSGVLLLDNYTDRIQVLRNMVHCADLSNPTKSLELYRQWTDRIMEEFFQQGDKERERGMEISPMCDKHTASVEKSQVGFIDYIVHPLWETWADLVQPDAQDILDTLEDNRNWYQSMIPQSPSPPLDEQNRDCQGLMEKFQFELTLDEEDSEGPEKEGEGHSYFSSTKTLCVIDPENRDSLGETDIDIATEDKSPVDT
Method in brief: (§1)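 Unpurified enzyme from cell lysates (PDE4B2 2.5 μl, PDE4D5 0.083 μl of 50% glycerol stock/ml) hydrolysing [3H]cAMP in 50 mM Tris pH 7.5, 8.3 mM MgCl, 1.7 mM EGTA, 0.01% BSA, 30 min at 30 °C. Stopped with yttrium silicate SPA beads in 18 mM ZnSO4; bead-bound [3H]AMP counted. IC50 by non-linear regression.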

[3] = target: T3, PDE4D: catalytic domain S316-V692 (Homo sapiens, UniProt Q08499); experiment: PDE4 IC50 determination by Scintillation Proximity Assay (SPA), PDE4D catalytic domain; format: biochemical; conditions: [3H]cAMP SPA, 30 min at 30° C.
T3 construct: pET15S PDE4D S316-V692-X; His6 (N, cleaved yes); thrombin cleavage site (N, cleaved yes); made in house; host or cells: E. coli BL21 (DE3) RIL
T3 sequence (Q08499 380-756): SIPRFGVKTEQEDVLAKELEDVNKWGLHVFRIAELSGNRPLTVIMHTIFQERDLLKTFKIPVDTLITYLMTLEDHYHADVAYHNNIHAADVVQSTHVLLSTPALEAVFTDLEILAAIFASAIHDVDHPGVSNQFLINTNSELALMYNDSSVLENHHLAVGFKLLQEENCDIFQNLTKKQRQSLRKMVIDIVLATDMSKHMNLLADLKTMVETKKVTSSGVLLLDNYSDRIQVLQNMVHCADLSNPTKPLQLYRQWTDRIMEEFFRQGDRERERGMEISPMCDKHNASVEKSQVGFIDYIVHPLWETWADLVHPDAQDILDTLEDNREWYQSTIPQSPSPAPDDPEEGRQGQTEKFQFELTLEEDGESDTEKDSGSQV
Method: IC50s were determined by Scintillation Proximity Assay (SPA). The principle of the assay is based on the fact that cAMP, the PDE4 substrate, binds weakly to Yittrium Silicate SPA beads, whereas AMP, the product of PDE4 hydrolysis binds strongly. Thus, the extent of PDE4 hydrolysis of a sample of [^3H]cAMP can be measured because only the [^3H]AMP produced by PDE4 hydrolysis will bind to the SPA beads and produce a scintillation signal.
[…] Enzyme was stored in 50% glycerol at −20°. See Example 144.
Compounds tested (see Tables 5 for compounds and results) were 3-fold serially diluted 11 times in DMSO from a starting concentration of 4 mM or 40 μM, depending on compound potency. 1 μl of each dilution was transferred into duplicate wells of a white polystyrene 384-well assay plate (Corning #3710). In addition to the compound dilutions, each assay plate contained control wells with 1 μl of DMSO (to define 0% enzyme inhibition) or 1 μl of 200 μM roflumilast (to define 100% enzyme inhibition). Using a Beckman FX robot, 10 μl of [^3H] cAMP (Amersham TRK559) at […] in assay buffer (50 mM Tris, pH 7.5; 8.3 mM MgCl; 1.7 mM EGTA; 0.01% BSA) was transferred to each assay well. Next, 10 μl of PDE4 enzyme in assay buffer was added and the plates were shaken for 30 s. at 1000 rpm to start the cAMP hydrolysis reaction. The concentrations of enzyme used were: PDE4B, 80 ng/ml; PDE4D, 4 ng/ml; PDE4B2, 2.5 μl of 50% glycerol stock/ml; PDE4D5 0.083 μl of 50% glycerol stock/ml. Assay plates were covered and incubated for 30 min. at 30° C. Reactions were stopped by robotic addition of 10 μl of 5 mg/ml SPA beads (Amersham RPNQ0013) in 18 mM ZnSO4. The assay plates were covered with clear plastic film, centrifuged for 1 min. at 1000 RPM to settle the SPA beads, and counted using a Wallac TriLux scintillation counter. IC50's were calculated from the raw assay data by non-linear regression curve fitting using the Assay Explorer software package from MDL.

[4] = target: T4, PDE4D5: full-length human PDE4D5 isozyme (Homo sapiens, UniProt Q08499); experiment: PDE4 IC50 determination by Scintillation Proximity Assay (SPA), full-length PDE4D5; format: biochemical; conditions: cell lysate, [3H]cAMP SPA
T4 construct: made in house; host or cells: baculovirus infected insect cells (pFastBacHT)
T4 sequence (Q08499 with tags, fused parts or gaps isoform Q08499-6): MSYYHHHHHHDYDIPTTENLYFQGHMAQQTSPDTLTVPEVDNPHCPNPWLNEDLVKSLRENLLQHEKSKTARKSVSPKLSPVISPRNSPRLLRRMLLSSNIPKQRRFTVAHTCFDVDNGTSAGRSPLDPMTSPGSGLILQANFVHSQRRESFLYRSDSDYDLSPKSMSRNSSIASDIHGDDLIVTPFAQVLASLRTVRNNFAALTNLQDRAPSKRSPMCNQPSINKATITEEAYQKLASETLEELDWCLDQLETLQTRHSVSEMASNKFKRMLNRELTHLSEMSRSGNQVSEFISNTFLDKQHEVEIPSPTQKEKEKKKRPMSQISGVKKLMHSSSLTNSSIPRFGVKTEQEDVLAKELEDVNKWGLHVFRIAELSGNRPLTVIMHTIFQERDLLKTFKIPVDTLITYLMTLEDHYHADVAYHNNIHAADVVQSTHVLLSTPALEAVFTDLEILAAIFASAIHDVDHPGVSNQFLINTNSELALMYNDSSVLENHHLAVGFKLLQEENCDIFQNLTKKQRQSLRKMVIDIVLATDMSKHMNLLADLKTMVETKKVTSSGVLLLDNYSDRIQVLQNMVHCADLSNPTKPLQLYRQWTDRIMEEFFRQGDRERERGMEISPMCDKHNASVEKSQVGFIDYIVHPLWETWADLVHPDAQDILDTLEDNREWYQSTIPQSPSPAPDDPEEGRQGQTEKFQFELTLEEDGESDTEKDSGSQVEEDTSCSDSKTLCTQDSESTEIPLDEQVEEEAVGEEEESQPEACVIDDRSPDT
Method in brief: as §1

[5] = system: TNF-α release from whole blood cultures stimulated with LPS; experiment: IC50 by TNF alpha production upon stimulation of whole blood cultures with LPS; format: cell-based; conditions: human whole blood (buffy coat) culture, 100 ng/ml LPS, 4 hours; read-out: h TNFα IC50
Method in brief: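 Human buffy coat, diluted with 7 volumes of RPMI/2.5% heat-inactivated FBS, was preincubated with compound (8-point 1:3 series) for 1 h at 37 °C. It was then stimulated with 100 ng/ml LPS (final) for 4 h. Supernatant TNF-α was measured by sandwich ELISA at 450 nm, and IC50 was set between DMSO (0%) and PDE4-inhibitor (100%) controls.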

Compound | IC50 [1] [µM] | IC50 [2] [µM] | IC50 [3] [µM] | IC50 [4] [µM] | IC50 [5] [µM]
COc1ccc(-c2cn(S(=O)(=O)Cc3ccc(Cl)cc3)c3ncccc23)cc1OC [Compound 17, 1-(4-chloro-phenylmethanesulfonyl)-3-(3,4-dimethoxy-phenyl)-1H-pyrrolo[2,3-b]pyridine] | < 10 | < 10 | ≤ 10 | < 10 | ≤ 10
COc1ccc(-c2cn(S(=O)(=O)Cc3cccc([N+](=O)[O-])c3)c3ncccc23)cc1OC [Compound 18, 3-(3,4-dimethoxy-phenyl)-1-(3-nitro-phenylmethanesulfonyl)-1H-pyrrolo[2,3-b]pyridine] | < 10 | < 10 | ≤ 10 | < 10 | ≤ 10
COc1ccc(-c2cn(C(=O)Nc3ccccc3)c3ncccc23)cc1OC [Compound 28, 3-(3,4-Dimethoxy-phenyl)-pyrrolo[2,3-b]pyridine-1-carboxylic acid phenylamide] | < 10 | < 10 | ≤ 10 | < 10 | –
COc1ccc(-c2cn(C(=O)Nc3ccc(F)c([N+](=O)[O-])c3)c3ncccc23)cc1OC [Compound 31, 3-(3,4-Dimethoxy-phenyl)-pyrrolo[2,3-b]pyridine-1-carboxylic acid (4-fluoro-3-nitro-phenyl)-amide] | < 10 | < 10 | ≤ 10 | < 10 | ≤ 10
COc1ccc(-c2cn(C(=O)Nc3ccc4c(c3)OCO4)c3ncccc23)cc1OC [Compound 36, 3-(3,4-Dimethoxy-phenyl)-pyrrolo[2,3-b]pyridine-1-carboxylic acidbenzo[1,3]dioxol-5-ylamide] | < 10 | < 10 | ≤ 10 | < 10 | > 10
COc1ccc(-c2ccnc3[nH]ccc23)cc1OC [Compound 50, 4-(3,4-Dimethoxy-phenyl)-1H-pyrrolo[2,3-b]pyridine] | < 10 | < 10 | ≤ 10 | < 10 | ≤ 10
COc1ccc(-c2cn(Cc3cccc([N+](=O)[O-])c3)c3ncccc23)cc1OC [Compound 53, 3-(3,4-Dimethoxy-phenyl)-1-(3-nitro-benzyl)-1H-pyrrolo[2,3-b]pyridine] | < 10 | < 10 | ≤ 10 | < 10 | ≤ 10
COc1ccc(-c2cn(S(=O)(=O)c3ccccc3)c3ncccc23)cc1OCc1ccccc1 [Compound 103, 1-Benzenesulfonyl-3-(3-benzyloxy-4-methoxy-phenyl)-1H-pyrrolo[2,3-b]pyridine] | < 10 | < 10 | ≤ 10 | < 10 | –
COc1ccc(-c2cn(C(=O)c3ccc(C)c4ccccc34)c3ncccc23)cc1OC [Compound 114, [3-(3,4-Dimethoxy-phenyl)-pyrrolo[2,3-b]pyridin-1-yl]-(4-methyl-naphthalen-1-yl)-methanone] | < 10 | < 10 | – | < 10 | ≤ 10
COc1ccc(-c2c(C)[nH]c3ncccc23)cc1OC [Compound 143, 3-(3,4-Dimethoxy-phenyl)-2-methyl-1H-pyrrolo[2,3-b]pyridine] | < 10 | – | ≤ 10 | – | –

Results, then the molecule that gave them:

IC50 [1] [µM] | IC50 [2] [µM] | IC50 [3] [µM] | IC50 [4] [µM] | IC50 [5] [µM] | Compound
< 10 | < 10 | ≤ 10 | < 10 | ≤ 10 | COc1ccc(-c2c[nH]c3ncccc23)cc1OC [Compound 1, 3-(3,4-dimethoxy-phenyl)-1H-pyrrolo[2,3-b]pyridine]
< 10 | < 10 | ≤ 10 | < 10 | ≤ 10 | COc1ccc(-c2cn(S(=O)(=O)c3ccccc3)c3ncccc23)cc1OC [Compound 5, 1-benzenesulfonyl-3-(3,4-dimethoxy-phenyl)-1H-pyrrolo[2,3-b]pyridine]
< 10 | < 10 | ≤ 10 | < 10 | ≤ 10 | COc1ccc(-c2cn(S(=O)(=O)c3cc(C)cc4cccnc34)c3ncccc23)cc1OC [Compound 24]
< 10 | < 10 | ≤ 10 | < 10 | – | CCOC(=O)c1cccc(NC(=O)n2cc(-c3ccc(OC)c(OC)c3)c3cccnc32)c1 [Compound 30, 3-[3-(3,4-Dimethoxy-phenyl)-pyrrolo[2,3-b]pyridine-1-carbonyl]-amino-benzoic acid ethyl ester]
< 10 | < 10 | ≤ 10 | < 10 | > 10 | COc1cccc(NC(=O)n2cc(-c3ccc(OC)c(OC)c3)c3cccnc32)c1 [Compound 32, 3-(3,4-Dimethoxy-phenyl)-pyrrolo[2,3-b]pyridine-1-carboxylic acid (3-methoxy-phenyl)-amide]
< 10 | < 10 | ≤ 10 | < 10 | > 10 | COc1cccc(NC(=S)n2cc(-c3ccc(OC)c(OC)c3)c3cccnc32)c1 [Compound 42, 3-(3,4-dimethoxy-phenyl)-pyrrolo[2,3-b]pyridine-1-carbothioic acid (3-methoxy-phenyl)-amide]
< 10 | < 10 | ≤ 10 | > 10 | – | COc1ccc2c(c1)c(-c1ccc(OC)c(OC3CCCC3)c1)cn2S(=O)(=O)c1cccc2cc(C)cnc12 [Compound 97, 8-[5-Methoxy-3-(3-cyclopentyloxy-4-methoxy-phenyl)-indole-1-sulfonyl]-3-methyl-quinoline]
< 10 | < 10 | ≤ 10 | < 10 | – | COc1ccc(-c2cn(Cc3cc(-c4ccccc4)no3)c3ncccc23)cc1OC [Compound 104, 3-(3,4-Dimethoxy-phenyl)-1-(3-phenyl-isoxazol-5-ylmethyl)-1H-pyrrolo[2,3-b]pyridine]
< 10 | < 10 | – | < 10 | > 10 | COc1ccc(-c2cn(C(=O)c3c(-c4ccccc4)cnc4ccccc34)c3ncccc23)cc1OC [Compound 117, [3-(3,4-Dimethoxy-phenyl)-pyrrolo[2,3-b]pyridin-1-yl]-(3-phenyl-quinolin-4-yl)-methanone]
< 10 | < 10 | ≤ 10 | < 10 | – | COc1ccc(-c2cn(C(=O)c3c(OCC(F)(F)F)ccc4ccccc34)c3ncccc23)cc1OC1CCCC1 [Compound 124, [3-(3-Cyclopentyloxy-4-methoxy-phenyl)-pyrrolo[2,3-b]pyridin-1-yl]-[2-(2,2,2-trifluoro-ethoxy)-naphthalen-1-yl]-methanone]
< 10 | < 10 | – | < 10 | ≤ 10 | COc1ccc(-c2ccnc3c2ccn3S(=O)(=O)Cc2ccccc2)cc1OC [Compound 127, 4-(3,4-Dimethoxy-phenyl)-1-phenylmethanesulfonyl-1H-pyrrolo[2,3-b]pyridine]
